Measurements reported in US20260125374A1, “PI3K-ALPHA INHIBITORS AND METHODS OF MAKING AND USING THE SAME” (Relay Therapeutics, Inc., priority 2021, published 2026).
Marks after values point to notes of the source that are not given here.

Assay: Polymorph screening (equilibration, anti-solvent, slow evaporation, slow cooling, temperature cycling, heating-cooling; XRPD and SFC)
Assay type: physicochemical
Experimental: This polymorph screening program of compound I-1 free form was performed with two batches of the pure enantiomer. Both batches are crystalline and is assigned as Form A. The polymorphic behaviors of the enantiomer were investigated by equilibration at 25° C. and 50° C., equilibration under a temperature cycle, crystallization from hot saturated solutions by slow cooling, slow evaporation, precipitation by addition of anti-solvent, and DSC heating-cooling cycle experiments. Relative stability of identified polymorphs was investigated by competitive slurry experiments.
About 50 mg of I-1 Form A was weighed into a 2 mL glass vial and equilibrated in suitable amount of solvents (pretreated by molecular sieves) at 25° C. for 2 weeks with a stirring plate and with protection from light. Obtained suspensions were filtered with 0.45 μm nylon membrane and the solid parts (wet cake) were investigated by XRPD. When differences were observed, additional investigations were performed (e.g. DSC, TGA, ^1H-NMR, SFC).
About 50 mg of I-1 Form A was weighed into 2 mL glass vials and equilibrated in suitable amount of solvents (pretreated by molecular sieves) at 50° C. for 10 days with a stirring plate and with protection from light. Obtained suspensions were filtered with 0.45 μm nylon membrane and the solid parts (wet cake) were investigated by XRPD. When differences were observed, additional investigation was performed (e.g. DSC, TGA, ^1H-NMR, SFC).
I-1 Form A was dissolved in a good solvent. […] The solvents used were pretreated by molecular sieve. Precipitates were collected by filtration. The solid part (wet cake) was investigated by XRPD. […] When differences were observed, additional investigations were performed (e.g. DSC, TGA, ^1H-NMR, SFC).
Based on approximate solubility results, I-1 Form A was dissolved in suitable amount of solvents (pretreated by molecular sieves). Obtained solutions were filtered by 0.45 μm nylon filter. […] Solid residues were examined for their polymorphic form. When differences were observed, additional investigations were performed (e.g. DSC, TGA, ^1H-NMR, SFC).
Approximate 50 mg of batch I-1 Form A were dissolved in the minimal amount of selected solvents (without pretreatment by molecular sieves) at 50° C. Obtained solutions were filtered by 0.45 μm nylon filter. […] Precipitates were collected by filtration. The solid parts (wet cake) were investigated by XRPD. When differences were observed, additional investigations were performed (e.g. DSC, TGA, ^1H-NMR, SFC). When no precipitation was obtained or only a few solids were obtained, the solutions were placed at 5° C. for crystallization.
About 50 mg of I-1 Form A was equilibrated in different solvents (pretreated by molecular sieves) under a temperature cycle between 5° C. to 50° C. at a heating/cooling rate of 0.2° C./min for 10 cycles and with protection from light. After 10 cycles, precipitates were collected at 5° C. by filtration. The solid parts (wet cake) were investigated by XRPD. When differences were observed, additional investigations were performed (e.g. DSC, TGA, 1H-NMR, SFC).
Polymorphic behavior of I-1 Form A was investigated by two different heating-cooling cycles of DSC. Cycle 1:30° C. to 280° C. at 10° C./min; 280° C. to −20° C. at 20° C./min; reheat to 300° C. at 10° C./min. Cycle 2:30° C. to 280° C. at 10° C./min; 280° C. to-20° C. at 2° C./min; reheat to 300° C. at 10° C./min.

[1] = anti-solvent Acetone / Heptane(2V), added III-1 Form D seeds, stirred for 1 h
[2] = anti-solvent MeOH / Water(0.1V), III-1 Form A seeds, stirred for 2 days
[3] = anti-solvent THF / MTBE(1.5V), added I-1 Form C seeds, stirred for 2 h

For N#Cc1c(-c2cc(NC(=O)c3cc(F)cc(C(F)(F)F)c3)c3c(c2)C(=O)N[C@H]3c2cc(F)ccc2Cl)ccc2ncnn12 [Compound I-1, (R)-N-(3-(2-chloro-5-fluorophenyl)-6-(5-cyano-[1,2,4]triazolo[1,5-a]pyridin-6-yl)-1-oxoisoindolin-4-yl)-3-fluoro-5-(trifluoromethyl)benzamide], the XRPD [1] was “I-1 Form A”, the “ee %(SFC)” value [1] was “ee %(SFC): 94.9%*” and the “ee %(SFC)” value (anti-solvent MeOH / Water(0.1V), III-1 Form A seeds, stirred for 2 h) was “ee %(SFC): 98.8%*”. The XRPD [2] was “I-1 Form A”, the “ee %(SFC)” value [2] was “ee %(SFC): 99.2%*” and the XRPD [3] was “I-1 Form C”. The “ee %(SFC)” value [3] was “ee %(SFC): 99.5%*”, the XRPD (anti-solvent precipitation at 25° C.: Acetone / Heptane(2V)) was “I-1 Form A” and the XRPD (anti-solvent precipitation at 25° C.: Acetone / MTBE(4V)) was “I-1 Form A”. For the same compound, the XRPD (anti-solvent precipitation at 25° C.: MeOH / MTBE(4V), stirred at 25° C. for 23 days) was “I-1 Form E”, the “Comments (outcome)” value (anti-solvent precipitation at 25° C.: MeOH / Toluene(4V)) was “Clear solution” and the XRPD (anti-solvent precipitation at 25° C.: THF / Heptane(1.5V)) was “I-1 Form C”. The XRPD (anti-solvent precipitation at 25° C.: THF / MTBE(4V)) was “I-1 Form C”, the “ee %(SFC)” value (anti-solvent precipitation: MeOH / MTBE(4V), stirred at 25° C. for 23 days, SFC immediately after preparation) was “ee % (SFC): 2.7%*” and the “ee %(SFC)” value (anti-solvent precipitation: THF / MTBE(4V), SFC immediately after preparation) was “ee % (SFC): 100.0%*”. For the same compound, the “racemization in organic solvents (free form polymorph study)” value (certain organic solvents, including methanol and IPAc) was “easily racemized”, the XRPD (equilibration at 25° C. for 2 weeks in 1,4-Dioxane) was “I-1 Form A” and the XRPD (equilibration at 25° C. for 2 weeks in 2-MeTHF) was “I-1 Form A”. For the same compound, the XRPD (equilibration at 25° C. for 2 weeks in ACN/water(90:10, v/v) a.w. 0.9) was “I-1 + I-2 mixture”, the “ee %(SFC)” value (equilibration at 25° C. for 2 weeks in ACN/water(90:10, v/v), SFC immediately after preparation) was “ee % (SFC): 89.6%*” and the XRPD (equilibration at 25° C. for 2 weeks in Acetone) was “I-1 + I-2 mixture”. The XRPD (equilibration at 25° C. for 2 weeks in Acetone/water(60:40, v/v) a.w. 0.8) was “I-1 + I-2 mixture”, the XRPD (equilibration at 25° C. for 2 weeks in Acetonitrile) was “I-1 Form A” and the XRPD (equilibration at 25° C. for 2 weeks in Benzyl alcohol) was “I-1 Form A”. For the same compound, the XRPD (equilibration at 25° C. for 2 weeks in Dichloromethane) was “I-1 Form A”, the XRPD (equilibration at 25° C. for 2 weeks in Ethanol) was “I-1 Form A” and the XRPD (equilibration at 25° C. for 2 weeks in Ethyl acetate) was “I-1 Form A”. For the same compound, the XRPD (equilibration at 25° C. for 2 weeks in Isopropyl acetate) was “I-1 Form A”, the XRPD (equilibration at 25° C. for 2 weeks in MeOH/water(55:45, v/v) a.w. 0.7) was “I-1 Form A” and the XRPD (equilibration at 25° C. for 2 weeks in Methanol) was “I-1 + I-2 mixture”. For the same compound, the XRPD (equilibration at 25° C. for 2 weeks in Methyl ethyl ketone) was “I-1 Form A”, the XRPD (equilibration at 25° C. for 2 weeks in THF/water(85:15, v/v) a.w. 0.9, target concentration 510 mg/mL) was “III-1 Form B” and the XRPD (equilibration at 25° C. for 2 weeks in Tetrahydrofuran) was “I-1 Form A”. The XRPD (equilibration at 25° C. for 2 weeks in Water) was “I-1 + I-2 mixture”, the XRPD (equilibration at 25° C. for 2 weeks in t-Butyl methyl ether) was “I-1 Form A” and the “XRPD (4 days)” value (equilibration at 25° C. in THF/water(85:15, v/v) a.w. 0.9, added III-1 Form B seeds) was “I-1 + II-1 mixture”. The “ee %(SFC)” value (equilibration at 25° C. in THF/water(85:15, v/v), 4 days, added III-1 Form B seeds) was “ee %(SFC): 93.8%*”, the XRPD (equilibration at 50° C. for 10 days in 1,4-Dioxane) was “I-1 Form B” and the “ee %(SFC)” value (equilibration at 50° C. for 10 days in 1,4-Dioxane, SFC immediately after preparation) was “ee % (SFC): 100.0%*”. The XRPD (equilibration at 50° C. for 10 days in ACN/water(80:20, v/v) a.w. 0.9) was “III-1 Form A”, the “ee %(SFC)” value (equilibration at 50° C. for 10 days in ACN/water(80:20, v/v), SFC immediately after preparation) was “ee % (SFC): 50.7%*” and the XRPD (equilibration at 50° C. for 10 days in Acetone) was “I-1 Form A”. For the same compound, the XRPD (equilibration at 50° C. for 10 days in Acetone/water(60:40, v/v) a.w. 0.8) was “III-1 Form C”, the “ee %(SFC)” value (equilibration at 50° C. for 10 days in Acetone/water(60:40, v/v), SFC immediately after preparation) was “ee % (SFC): 56.9%*” and the XRPD (equilibration at 50° C. for 10 days in Acetonitrile) was “I-1 Form A”. For the same compound, the XRPD (equilibration at 50° C. for 10 days in Anisole) was “I-1 Form A”, the XRPD (equilibration at 50° C. for 10 days in EtOH/water(50:50, v/v) a.w. 0.9) was “III-1 Form A” and the “ee %(SFC)” value (equilibration at 50° C. for 10 days in EtOH/water(50:50, v/v), SFC after preparation for about 12 h) was “ee % (SFC): 75.0%#;”. For the same compound, the “ee %(SFC)” value (equilibration at 50° C. for 10 days in EtOH/water(50:50, v/v), SFC immediately after preparation) was “ee % (SFC): 76.9%*,” and the XRPD (equilibration at 50° C. for 10 days in Ethanol) was “I-1 Form A”.
